Assay results published in patent US10479780B2, “Aminopyrazole derivatives” (Chugai Seiyaku Kabushiki Kaisha, priority 2015, dated 2019).
pIC50: −log10 of the molar value.

Tests used:
Assay type in all cases: biochemical
[1] = target: T1, human Src enzyme (Homo sapiens, UniProt P12931); assay: Src enzyme inhibitory activity (time-resolved fluorometry, biotinylated peptide phosphorylation); details: read-out: SRC_IC50
T1 construct: purchased Carna Biosciences, Inc. 08-173
How it was run: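 Compounds were tested for blocking tyrosine phosphorylation of a biotinylated peptide substrate by recombinant human Src. Phosphorylated product was quantified by time-resolved fluorometry using europium cryptate and XL665 conjugates, and IC50 was calculated against the compound-free control.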

[2] = target: T2, human Lck enzyme (Homo sapiens, UniProt P06239); assay: Lck enzyme inhibitory activity (time-resolved fluorometry, biotinylated peptide phosphorylation); details: read-out: LCK_IC50
T2 construct: purchased Carna Biosciences, Inc. 08-170
How it was run: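 Readout pairs a europium cryptate-labelled anti-phosphotyrosine antibody with XL665-streptavidin, measured by time-resolved fluorescence. IC50 derived from percent inhibition against untreated controls.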

[3] = target: T3, human Yes1 enzyme (Homo sapiens, UniProt P07947); assay: Yes1 enzyme inhibitory activity (time-resolved fluorometry, biotinylated peptide phosphorylation); details: read-out: YES_IC50
T3 construct: made in house
How it was run: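 Inhibition was expressed against a compound-free control to give IC50, using TR-FRET read-out (Eu-cryptate anti-pTyr antibody, streptavidin-XL665).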

T1 sequence (P12931 whole entry): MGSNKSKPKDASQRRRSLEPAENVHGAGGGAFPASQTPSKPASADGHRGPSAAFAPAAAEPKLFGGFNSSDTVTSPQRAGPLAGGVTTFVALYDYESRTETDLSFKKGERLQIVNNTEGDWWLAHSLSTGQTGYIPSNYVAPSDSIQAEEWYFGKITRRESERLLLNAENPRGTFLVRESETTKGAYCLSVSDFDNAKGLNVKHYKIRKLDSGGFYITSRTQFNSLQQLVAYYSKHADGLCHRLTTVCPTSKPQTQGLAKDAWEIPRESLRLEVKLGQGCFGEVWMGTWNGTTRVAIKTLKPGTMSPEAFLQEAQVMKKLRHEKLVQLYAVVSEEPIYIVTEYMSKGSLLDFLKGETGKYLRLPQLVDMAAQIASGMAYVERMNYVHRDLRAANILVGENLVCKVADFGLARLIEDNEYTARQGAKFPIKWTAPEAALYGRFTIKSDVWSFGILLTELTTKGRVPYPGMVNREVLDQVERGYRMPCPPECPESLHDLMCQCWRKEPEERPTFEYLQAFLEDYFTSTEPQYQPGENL
T3 sequence (P07947 whole entry): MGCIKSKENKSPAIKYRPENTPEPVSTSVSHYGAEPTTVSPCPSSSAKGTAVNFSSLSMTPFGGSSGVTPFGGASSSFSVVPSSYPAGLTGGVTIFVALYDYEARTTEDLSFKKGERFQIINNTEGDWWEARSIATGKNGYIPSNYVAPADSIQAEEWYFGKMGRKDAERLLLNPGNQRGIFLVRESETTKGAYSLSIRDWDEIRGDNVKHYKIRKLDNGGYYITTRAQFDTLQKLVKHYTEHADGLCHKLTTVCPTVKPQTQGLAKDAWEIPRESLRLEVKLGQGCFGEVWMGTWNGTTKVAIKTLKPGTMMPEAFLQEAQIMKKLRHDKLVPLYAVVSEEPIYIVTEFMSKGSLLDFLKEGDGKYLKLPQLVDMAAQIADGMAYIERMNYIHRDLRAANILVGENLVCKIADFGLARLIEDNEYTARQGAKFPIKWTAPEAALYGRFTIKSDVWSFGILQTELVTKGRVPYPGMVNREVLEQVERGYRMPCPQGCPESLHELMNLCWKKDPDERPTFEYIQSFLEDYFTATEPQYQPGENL
T2 sequence (P06239 whole entry): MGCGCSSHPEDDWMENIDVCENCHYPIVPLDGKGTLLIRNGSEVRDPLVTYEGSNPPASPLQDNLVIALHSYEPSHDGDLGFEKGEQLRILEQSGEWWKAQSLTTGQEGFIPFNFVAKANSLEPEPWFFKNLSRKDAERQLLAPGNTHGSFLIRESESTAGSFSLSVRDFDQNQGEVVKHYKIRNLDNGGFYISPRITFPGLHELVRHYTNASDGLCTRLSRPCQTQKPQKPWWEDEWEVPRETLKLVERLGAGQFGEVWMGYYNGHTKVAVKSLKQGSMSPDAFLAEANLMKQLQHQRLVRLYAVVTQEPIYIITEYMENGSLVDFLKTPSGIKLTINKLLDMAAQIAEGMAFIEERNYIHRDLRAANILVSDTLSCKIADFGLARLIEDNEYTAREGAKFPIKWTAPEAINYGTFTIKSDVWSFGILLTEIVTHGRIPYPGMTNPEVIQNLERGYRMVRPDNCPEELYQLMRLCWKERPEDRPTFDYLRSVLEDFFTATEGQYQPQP

SMILES	pIC50 [1]	pIC50 [2]	pIC50 [3]
Cc1cc2cc(C(=O)c3cnn(-c4cnc(Oc5c(F)cccc5F)cc4C)c3N)[nH]c2cc1NS(=O)(=O)N1CCOC[C@H]1C [Example 5-1-292, (3R)-N-[2-[5-amino-1-[6-(2,6-difluorophenoxy)-4-methylpyridin-3-yl]pyrazole-4-carbonyl]-5-methyl-1H-indol-6-yl]-3-methylmorpholine-4-sulfonamide]	6.20	7.06	7.72
Cc1cc(-n2ncc(C(=O)c3cc4cc(OC5CCN(C(C)C)CC5)c(N5C(=O)N[C@@H](CO)C5=O)cc4[nH]3)c2N)ccc1Oc1ccccc1F [Example 5-1-293, (5S)-3-[2-[5-amino-1-[4-(2-fluorophenoxy)-3-methylphenyl]pyrazole-4-carbonyl]-5-(1-propan-2-ylpiperidin-4-yl)oxy-1H-indol-6-yl]-5-(hydroxymethyl)imidazolidine-2,4-dione]	6.36	7.74	9.14
Cc1cc(Oc2c(F)cccc2F)ncc1-n1ncc(C(=O)c2cc3cc(OCC(F)F)c(NS(=O)(=O)Cc4ccccc4)cc3[nH]2)c1N [Example 5-1-296, N-[2-[5-amino-1-[6-(2,6-difluorophenoxy)-4-methylpyridin-3-yl]pyrazole-4-carbonyl]-5-(2,2-difluoroethoxy)-1H-indol-6-yl]-1-phenylmethanesulfonamide]	6.82	7.34	8.23
Cc1cc(Oc2c(F)cccc2F)ncc1-n1ncc(C(=O)c2cc3cc(OCC(F)F)c(NS(=O)(=O)c4ccc(F)cc4)cc3[nH]2)c1N [Example 5-1-297, N-[2-[5-amino-1-[6-(2,6-difluorophenoxy)-4-methylpyridin-3-yl]pyrazole-4-carbonyl]-5-(2,2-difluoroethoxy)-1H-indol-6-yl]-4-fluorobenzenesulfonamide]	6.24	7.34	8.07
COc1ccc(S(=O)(=O)Nc2cc3[nH]c(C(=O)c4cnn(-c5cnc(Oc6c(F)cccc6F)cc5C)c4N)cc3cc2OCC(F)F)cc1 [Example 5-1-299, N-[2-[5-amino-1-[6-(2,6-difluorophenoxy)-4-methylpyridin-3-yl]pyrazole-4-carbonyl]-5-(2,2-difluoroethoxy)-1H-indol-6-yl]-4-methoxybenzenesulfonamide]	6.21	6.92	8.01
Cc1ccc(S(=O)(=O)Nc2cc3[nH]c(C(=O)c4cnn(-c5cnc(Oc6c(F)cccc6F)cc5C)c4N)cc3cc2OCC(F)F)cc1 [Example 5-1-300, N-[2-[5-amino-1-[6-(2,6-difluorophenoxy)-4-methylpyridin-3-yl]pyrazole-4-carbonyl]-5-(2,2-difluoroethoxy)-1H-indol-6-yl]-4-methylbenzenesulfonamide]	6.14	6.85	8.02
Cc1cc(Oc2c(F)cccc2F)ncc1-n1ncc(C(=O)c2cc3cc(C(C)C)c(NS(=O)(=O)N4C5CCC4COC5)cc3[nH]2)c1N [Example 5-1-303, N-[2-[5-amino-1-[6-(2,6-difluorophenoxy)-4-methylpyridin-3-yl]pyrazole-4-carbonyl]-5-propan-2-yl-1H-indol-6-yl]-3-oxa-8-azabicyclo [3.2.1]octane-8-sulfonamide]	5.82	6.49	7.57
Cc1cc(Oc2c(F)cccc2F)ncc1-n1ncc(C(=O)c2cc3cc(C(C)C)c(NS(=O)(=O)C4CCCCC4)cc3[nH]2)c1N [Example 5-1-304, N-[2-[5-amino-1-[6-(2,6-difluorophenoxy)-4-methylpyridin-3-yl]pyrazole-4-carbonyl]-5-propan-2-yl-1H-indol-6-yl] cyclohexanesulfonamide]	5.89	6.40	7.49
Cc1cc(Oc2c(F)cccc2F)ncc1-n1ncc(C(=O)c2cc3cc(C(C)C)c(NS(=O)(=O)CCCF)cc3[nH]2)c1N [Example 5-1-305, N-[2-[5-amino-1-[6-(2,6-difluorophenoxy)-4-methylpyridin-3-yl]pyrazole-4-carbonyl]-5-propan-2-yl-1H-indol-6-yl]-3-fluoropropane-1-sulfonamide]	6.42	7.08	8.01
Cc1cc(-n2ncc(C(=O)c3cc4cc(OC5CCN(C6CCCC6)CC5)c(-c5ccccc5F)cc4[nH]3)c2N)ccc1Oc1ccccc1F [Example 5-1-308, [5-amino-1-[4-(2-fluorophenoxy)-3-methylphenyl]pyrazol-4-yl]-[5-(1-cyclopentylpiperidin-4-yl)oxy-6-(2-fluorophenyl)-1H-indol-2-yl]methanone]	5.89	6.70	8.11
Cc1cc(-n2ncc(C(=O)c3cc4cc(OC5CCN(C6CS(=O)(=O)C6)CC5)c(-c5ccccc5F)cc4[nH]3)c2N)ccc1Oc1ccccc1F [Example 5-1-309, [5-amino-1-[4-(2-fluorophenoxy)-3-methylphenyl]pyrazol-4-yl]-[5-[1-(1,1-dioxothietan-3-yl)piperidin-4-yl]oxy-6-(2-fluorophenyl)-1H-indol-2-yl]methanone]	5.44	6.39	7.92

Second part, the compound after the results:

pIC50 [1]	pIC50 [2]	pIC50 [3]	SMILES
6.02	6.96	8.66	Cc1cc(-n2ncc(C(=O)c3cc4cc(OC5CCN(C(C)C)CC5)c(N5C(=O)N[C@@H](Cc6ccccc6)C5=O)cc4[nH]3)c2N)ccc1Oc1ccccc1F [Example 5-1-294, (5S)-3-[2-[5-amino-1-[4-(2-fluorophenoxy)-3-methylphenyl]pyrazole-4-carbonyl]-5-(1-propan-2-ylpiperidin-4-yl)oxy-1H-indol-6-yl]-5-benzylimidazolidine-2,4-dione]
6.15	7.19	8.82	Cc1cc(-n2ncc(C(=O)c3cc4cc(OC5CCN(C(C)C)CC5)c(N5C(=O)N[C@@H](C(C)C)C5=O)cc4[nH]3)c2N)ccc1Oc1ccccc1F [Example 5-1-295, (5S)-3-[2-[5-amino-1-[4-(2-fluorophenoxy)-3-methylphenyl]pyrazole-4-carbonyl]-5-(1-propan-2-ylpiperidin-4-yl)oxy-1H-indol-6-yl]-5-propan-2-ylimidazolidine-2,4-dione]
6.20	7.03	8.05	Cc1cc(Oc2c(F)cccc2F)ncc1-n1ncc(C(=O)c2cc3cc(OCC(F)F)c(NS(=O)(=O)c4ccc(Cl)cc4)cc3[nH]2)c1N [Example 5-1-298, N-[2-[5-amino-1-[6-(2,6-difluorophenoxy)-4-methylpyridin-3-yl]pyrazole-4-carbonyl]-5-(2,2-difluoroethoxy)-1H-indol-6-yl]-4-chlorobenzenesulfonamide]
6.21	6.77	8.19	COc1ccc(Cl)c(S(=O)(=O)Nc2cc3[nH]c(C(=O)c4cnn(-c5cnc(Oc6c(F)cccc6F)cc5C)c4N)cc3cc2OCC(F)F)c1 [Example 5-1-301, N-[2-[5-amino-1-[6-(2,6-difluorophenoxy)-4-methylpyridin-3-yl]pyrazole-4-carbonyl]-5-(2,2-difluoroethoxy)-1H-indol-6-yl]-2-chloro-5-methoxybenzenesulfonamide]
7.30	7.66	8.72	Cc1cc(Oc2ccccc2F)ccc1-n1ncc(C(=O)c2cc3cc(F)c(N4CC(C)(C)NS4(=O)=O)cc3[nH]2)c1N [Example 5-1-302, (5-amino-1-(4-(2-fluorophenoxy)-2-methylphenyl)-1H-pyrazol-4-yl)(6-(4,4-dimethyl-1,1-dioxido-1,2,5-thiadiazolidin-2-yl)-5-fluoro-1H-indol-2-yl)methanone]
6.20	6.82	7.64	Cc1cc(Oc2c(F)cccc2F)ncc1-n1ncc(C(=O)c2cc3cc(C(C)C)c(NS(=O)(=O)C4CCCC4)cc3[nH]2)c1N [Example 5-1-306, N-[2-[5-amino-1-[6-(2,6-difluorophenoxy)-4-methylpyridin-3-yl]pyrazole-4-carbonyl]-5-propan-2-yl-1H-indol-6-yl] cyclopentanesulfonamide]
7.42	7.66	8.47	Cc1cc(Oc2c(F)cccc2F)ncc1-n1ncc(C(=O)c2cc3cc(OC4CCN(C5CCCC5)CC4)c(-c4ccccc4F)cc3[nH]2)c1N [Example 5-1-310, [5-amino-1-[6-(2,6-difluorophenoxy)-4-methylpyridin-3-yl]pyrazol-4-yl]-[5-(1-cyclopentylpiperidin-4-yl)oxy-6-(2-fluorophenyl)-1H-indol-2-yl]methanone]
7.32	7.82	8.44	Cc1cc(Oc2c(F)cccc2F)ncc1-n1ncc(C(=O)c2cc3cc(OC4CCN(C5CS(=O)(=O)C5)CC4)c(-c4ccccc4F)cc3[nH]2)c1N [Example 5-1-311, [5-amino-1-[6-(2,6-difluorophenoxy)-4-methylpyridin-3-yl]pyrazol-4-yl]-[5-[1-(1,1-dioxothietan-3-yl)piperidin-4-yl]oxy-6-(2-fluorophenyl)-1H-indol-2-yl]methanone]
6.80	8.00	8.46	Cc1cc(Oc2c(F)cccc2F)ncc1-n1ncc(C(=O)c2cc3cc(F)c(N4C(=O)NC5(CCC5)C4=O)cc3[nH]2)c1N [Example 5-1-312, 7-[2-[5-amino-1-[6-(2,6-difluorophenoxy)-4-methylpyridin-3-yl]pyrazole-4-carbonyl]-5-fluoro-1H-indol-6-yl]-5,7-diazaspiro[3.4]octane-6,8-dione]
